Test results published in ChEMBL document CHEMBL1139473, “Design, synthesis, and biological evaluation of dual binding site acetylcholinesterase inhibitors: new disease-modifying agents for Alzheimer's disease” (J Med Chem, 2005).

What was measured:
Cholinesterase = Cholinesterase (Homo sapiens, UniProt P06276)
Description: Inhibition of human serum BChE

Acetylcholinesterase [1] = biological target: T1, Acetylcholinesterase (Bos taurus, UniProt P23795); test: biochemical
T1 sequence (P23795 whole entry): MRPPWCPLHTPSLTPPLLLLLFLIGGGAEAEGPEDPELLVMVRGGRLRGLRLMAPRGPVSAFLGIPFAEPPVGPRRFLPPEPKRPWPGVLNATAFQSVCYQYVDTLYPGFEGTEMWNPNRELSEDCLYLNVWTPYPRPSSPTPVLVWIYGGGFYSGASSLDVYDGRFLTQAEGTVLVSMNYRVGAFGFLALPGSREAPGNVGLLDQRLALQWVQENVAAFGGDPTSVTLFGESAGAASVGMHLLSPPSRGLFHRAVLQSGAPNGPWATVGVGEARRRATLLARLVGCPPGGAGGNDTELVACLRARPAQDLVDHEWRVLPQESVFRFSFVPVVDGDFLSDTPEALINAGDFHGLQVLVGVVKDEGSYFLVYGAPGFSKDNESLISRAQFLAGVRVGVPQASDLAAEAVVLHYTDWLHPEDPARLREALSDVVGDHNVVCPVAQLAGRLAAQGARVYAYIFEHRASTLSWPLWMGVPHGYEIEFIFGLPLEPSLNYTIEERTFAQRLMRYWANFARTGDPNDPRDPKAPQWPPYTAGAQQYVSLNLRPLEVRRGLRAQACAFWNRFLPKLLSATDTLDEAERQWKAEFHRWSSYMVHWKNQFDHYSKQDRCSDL
Description: Inhibition of AchE in bovine erythrocytes

Acetylcholinesterase [2] = biological target: T2, Acetylcholinesterase (Homo sapiens, UniProt P22303); test: Inhibition of human AChE-induced beta amyloid peptide(1-40) aggregation at 100 uM by thioflavin T-based fluorometric assay; assay type: functional
Acetylcholinesterase [3] = biological target: T2, Acetylcholinesterase
Acetylcholinesterase [4] = biological target: T2, Acetylcholinesterase; remark: listed apart in the source
Description: Inhibition of human brain AchE

[5] = biological target: Cholinesterases; ACHE & BCHE (Homo sapiens) (UniProt P06276+P22303); test: Selectivity for human BChE over human AChE; assay type: protein assay
SH-SY5Y = test: Cytotoxicity against human SHSY5Y cells at 10 uM after 48 hrs; assay type: cell-based

T2 sequence (P22303 whole entry): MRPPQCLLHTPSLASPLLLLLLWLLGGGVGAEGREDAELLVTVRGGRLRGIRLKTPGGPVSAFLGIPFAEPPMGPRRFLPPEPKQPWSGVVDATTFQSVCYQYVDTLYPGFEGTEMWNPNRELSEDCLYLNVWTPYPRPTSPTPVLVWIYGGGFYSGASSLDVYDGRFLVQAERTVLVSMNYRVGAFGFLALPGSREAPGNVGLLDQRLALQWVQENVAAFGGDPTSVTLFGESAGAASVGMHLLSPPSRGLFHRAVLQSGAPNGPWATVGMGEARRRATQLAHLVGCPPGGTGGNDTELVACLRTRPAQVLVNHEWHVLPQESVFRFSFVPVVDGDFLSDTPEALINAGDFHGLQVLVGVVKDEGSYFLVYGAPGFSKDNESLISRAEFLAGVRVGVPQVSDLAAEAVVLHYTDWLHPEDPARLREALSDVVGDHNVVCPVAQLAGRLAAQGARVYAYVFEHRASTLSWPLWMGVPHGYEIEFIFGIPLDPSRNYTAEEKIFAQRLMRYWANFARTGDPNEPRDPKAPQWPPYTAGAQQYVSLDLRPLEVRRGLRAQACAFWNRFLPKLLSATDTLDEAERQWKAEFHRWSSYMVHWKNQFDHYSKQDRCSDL
Chain of Cholinesterase (P06276 whole entry): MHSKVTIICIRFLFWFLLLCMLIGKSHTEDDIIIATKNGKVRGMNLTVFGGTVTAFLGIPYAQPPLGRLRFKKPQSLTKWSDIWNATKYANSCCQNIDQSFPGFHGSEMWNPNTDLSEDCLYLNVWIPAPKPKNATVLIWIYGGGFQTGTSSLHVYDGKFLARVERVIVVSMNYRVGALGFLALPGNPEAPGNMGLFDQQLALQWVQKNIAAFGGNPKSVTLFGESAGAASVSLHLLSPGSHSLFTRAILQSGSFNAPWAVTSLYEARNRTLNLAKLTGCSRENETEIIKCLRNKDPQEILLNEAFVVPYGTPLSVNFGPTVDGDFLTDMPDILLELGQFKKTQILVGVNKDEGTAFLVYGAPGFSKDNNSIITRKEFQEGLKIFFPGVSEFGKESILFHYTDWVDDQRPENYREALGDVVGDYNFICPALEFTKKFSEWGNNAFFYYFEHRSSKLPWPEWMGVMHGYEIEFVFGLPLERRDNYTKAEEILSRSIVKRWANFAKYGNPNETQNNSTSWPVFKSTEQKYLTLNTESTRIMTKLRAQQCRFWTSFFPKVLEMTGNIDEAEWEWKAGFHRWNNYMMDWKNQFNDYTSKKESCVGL
Chain of Cholinesterases; ACHE & BCHE (Homo sapiens) (P06276 whole entry, looked up): as the sequence (P06276 whole entry) above
Chain of Cholinesterases; ACHE & BCHE (Homo sapiens) (P22303 whole entry, looked up): as the sequence (P22303 whole entry) above

Row | Compound | IC50 (Cholinesterase) [nM] | IC50 (Acetylcholinesterase [1]) [nM] | inhibition (Acetylcholinesterase [2]) [%] | IC50 (Acetylcholinesterase [3]) [µM] | IC50 (Acetylcholinesterase [4]) [nM] | Ki (Acetylcholinesterase [4]) [nM] | Ratio IC50 [5] | Activity (SH-SY5Y)
1 | O=C(CCc1c[nH]c2ccccc12)NCCCCCCCCCc1c2c(nc3cc(Cl)ccc13)CCCC2 | 9.6 |  |  |  |  |  |  | 
2 | O=C(CCCc1c[nH]c2ccccc12)NCCCCCCNc1c2c(nc3cc(Cl)ccc13)CCCC2 |  | 0.5 |  |  |  |  |  | 
3 | O=C(Cc1c[nH]c2ccccc12)NCCCCCCCNc1c2c(nc3cc(Cl)ccc13)CCCC2 | 11.7 | 0.2 | 84 | 7 | 0.12 | 0.015 | 0.01 | 
4 | CN(CCCNC(=O)CCc1c[nH]c2ccccc12)CCCNc1c2c(nc3cc(Cl)ccc13)CCCC2 | 21.4 |  |  |  |  |  |  | Active
5 | O=C(CCc1c[nH]c2ccccc12)NCCCCCCCCCCNc1c2c(nc3ccccc13)CCCC2 | 54 | 21.9 |  |  |  |  |  | 
6 | O=C(/C=C/c1c[nH]c2ccccc12)NCCCCCCNc1c2c(nc3cc(Cl)ccc13)CCCC2 | 77 | 18 |  |  |  |  |  | 
7 | O=C(Cc1c[nH]c2ccc(Br)cc12)NCCCCCCCNc1c2c(nc3cc(Cl)ccc13)CCCC2 |  | 0.6 | 82 | 15 | 0.23 | 0.02 | 0.14 | 
8 | O=C(CCOc1c[nH]c2ccccc12)NCCCCCCCNc1c2c(nc3cc(Cl)ccc13)CCCC2 | 59 | 3 |  |  |  |  |  | 
9 | O=C(CCc1c[nH]c2ccccc12)NCCCCCCNc1c2c(nc3cc(Cl)ccc13)CCCC2 |  |  | 98 | 2 | 0.07 | 0.014 | 0.02 | 
10 | O=C(CCOc1c[nH]c2ccccc12)NCCCCCCNc1c2c(nc3cc(Cl)ccc13)CCCC2 | 60 | 0.7 |  |  |  |  |  | 
11 | O=C(CCc1c[nH]c2ccccc12)NCCCCCNc1c2c(nc3cc(Cl)ccc13)CCCC2 | 16 |  |  |  |  |  |  | 
12 | O=C(CCc1c[nH]c2ccccc12)NCCCCCCCNc1c2c(nc3cc(Cl)ccc13)CCCC2 |  |  | 96 | 6 | 0.02 | 0.009 | 0.22 | Active
13 | Cn1cc(C(=O)NCCCCCCCNc2c3c(nc4cc(Cl)ccc24)CCCC3)c2ccccc21 | 206 | 10.9 |  |  |  |  |  | 
14 | O=C(CCOc1c[nH]c2ccccc12)NCCCCCNc1c2c(nc3cc(Cl)ccc13)CCCC2 | 136 | 1.5 |  |  |  |  |  | 
15 | O=C(CCCc1c[nH]c2ccccc12)NCCCCCNc1c2c(nc3cc(Cl)ccc13)CCCC2 | 3.2 | 0.3 | 99 | 2 | 0.13 | 0.0017 | 0.04 | 
16 | N#Cc1ccc2[nH]cc(CCC(=O)NCCCCCCNc3c4c(nc5cc(Cl)ccc35)CCCC4)c2c1 | 11.7 | 0.7 |  |  |  |  |  | 
17 | O=C(CCc1c[nH]c2ccccc12)NCCCCCCCCNc1c2c(nc3cc(Cl)ccc13)CCCC2 |  |  |  |  |  |  |  | Active
